Results taken from patent US12558428B2, “Heterobifunctional compounds and their use in treating disease” (Halda Therapeutics OpCo, Inc., priority 2024, dated 2026).
Like-named read-outs stand apart in the source and are kept apart here.

How the values were obtained:
Assay type in all cases: cell-based
[1] = system: T-Rex 293 cells having increased expression of estrogen receptor alpha protein; assay: Cellular growth inhibition assay, T-Rex 293 cells, (+) doxycycline; details: Table 7-A, T-Rex 293 cells with doxycycline (increased ERα expression), 72 hours, CellTiter-Glo, read-out: (+) Dox GI50
Outline: (§1)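 Viability read-out was CellTiter-Glo 2.0 luminescence after 72 h compound exposure, normalized to zero luminescence and fitted by four-parameter regression to give GI50. Cells were an ERα-inducible T-Rex 293 clone cultured with or without 3 ng/mL doxycycline in charcoal-stripped, phenol red-free medium.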

[2] = system: T-Rex 293 cells lacking increased expression of estrogen receptor alpha protein; assay: Cellular growth inhibition assay, T-Rex 293 cells, (−) doxycycline; details: Table 7-A, T-Rex 293 cells without doxycycline (lacking increased ERα expression), 72 hours, CellTiter-Glo, read-out: (−) Dox GI50
Outline: as §1

[3] = system: MCF7 cells (ATCC #HTB-22); assay: Cellular growth inhibition assay, MCF7 cells purchased from ATCC; details: Table 8-A, MCF7 cells purchased from ATCC, six days, CellTiter-Glo, read-out: GI50
Outline: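 MCF7 cells in RPMI 1640 with 10% FBS and 0.2 U/ml insulin, seeded at 1,500 cells/well (ATCC) or 225 cells/well (ECACC). Compounds added 24 h later, then 6 days at 37° C. Viability by CellTiter-Glo 2.0 luminescence. GI50 from four-parameter fit.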

| GI50 ([3]; Homo sapiens, MCF7, 144 h) [nM] | GI50 [3] [nM] | SMILES | GI50 ([1]; T-REx-293, 72 h) [nM] | GI50 ([2]; T-REx-293, 72 h) [nM] | GI50 [1] [nM] | GI50 [2] [nM] |
| --- | --- | --- | --- | --- | --- | --- |
| < 50 | – | Cc1sc2c(c1C)C(c1ccc(N3CCN(C4CCN(CCOc5ccc([C@@H]6c7ccc(O)cc7CC[C@@H]6c6ccccc6)cc5)C4)CC3)cc1)=NC(Cc1ncco1)c1nnc(C)n1-2 (stereo partly drawn) [III-50] | < 50 | 50 to 500 | – | – |
| < 50 | – | Cc1sc2c(c1C)C(c1ccc(NCC3CC4(C3)CN(CCOc3ccc([C@@H]5c6ccc(O)cc6CC[C@@H]5c5ccccc5)cc3)C4)cc1)=NC(Cc1ncco1)c1nnc(C)n1-2 (stereo partly drawn) [III-51] | < 50 | 50 to 500 | – | – |
| 50 to 500 | – | Cc1sc2c(c1C)C(c1ccc(N[C@H]3CC[C@@H](NCCOc4ccc([C@@H]5c6ccc(O)cc6CC[C@@H]5c5ccccc5)cc4)CC3)cc1)=NC(Cc1ncco1)c1nnc(C)n1-2 (stereo partly drawn) [III-52] | 50 to 500 | 50 to 500 | – | – |
| 50 to 500 | – | Cc1sc2c(c1C)C(c1ccc(NCC3CCCN(CCOc4ccc([C@@H]5c6ccc(O)cc6CC[C@@H]5c5ccccc5)cc4)C3)cc1)=NC(Cc1ncco1)c1nnc(C)n1-2 (stereo partly drawn) [III-53] | 50 to 500 | 50 to 500 | – | – |
| 50 to 500 | – | Cc1sc2c(c1C)C(c1ccc(N3CCC[C@@H](CNCCOc4ccc([C@@H]5c6ccc(O)cc6CC[C@@H]5c5ccccc5)cc4)C3)cc1)=NC(Cc1ncco1)c1nnc(C)n1-2 (stereo partly drawn) [III-54] | 50 to 500 | 50 to 500 | – | – |
| 50 to 500 | – | Cc1sc2c(c1C)C(c1ccc(N3CCCC4(CCN(CCOc5ccc([C@@H]6c7ccc(O)cc7CC[C@@H]6c6ccccc6)cc5)CC4)C3)cc1)=NC(Cc1ncco1)c1nnc(C)n1-2 (stereo partly drawn) [III-55] | 50 to 500 | 500 to 2500 | – | – |
| 50 to 500 | – | Cc1sc2c(c1C)C(c1ccc(NCC3CCCCN3CCOc3ccc([C@@H]4c5ccc(O)cc5CC[C@@H]4c4ccccc4)cc3)cc1)=NC(Cc1ncco1)c1nnc(C)n1-2 (stereo partly drawn) [III-56] | 50 to 500 | 50 to 500 | – | – |
| 50 to 500 | – | Cc1sc2c(c1C)C(c1ccc(NCC3CCN(CCOc4ccc([C@@H]5c6ccc(O)cc6CC[C@@H]5c5ccccc5)cc4)C3)cc1)=NC(Cc1ncco1)c1nnc(C)n1-2 (stereo partly drawn) [III-57] | 50 to 500 | 50 to 500 | – | – |
| 50 to 500 | – | Cc1sc2c(c1C)C(c1ccc(N[C@H]3CC[C@H](NCCOc4ccc([C@@H]5c6ccc(O)cc6CC[C@@H]5c5ccccc5)cc4)CC3)cc1)=NC(Cc1ncco1)c1nnc(C)n1-2 (stereo partly drawn) [III-58] | < 50 | 50 to 500 | – | – |
| 50 to 500 | – | Cc1sc2c(c1C)C(c1ccc(N3CCOC4(CCN(CCOc5ccc([C@@H]6c7ccc(O)cc7CC[C@@H]6c6ccccc6)cc5)CC4)C3)cc1)=CC(Cc1ncco1)c1nnc(C)n1-2 (stereo partly drawn) [III-60] | 50 to 500 | 50 to 500 | – | – |
| < 50 | – | Cc1sc2c(c1C)C(c1ccc(N3CC[C@@H](CNCCOc4ccc([C@@H]5c6ccc(O)cc6CC[C@@H]5c5ccccc5)cc4)C3)cc1)=NC(Cc1ncco1)c1nnc(C)n1-2 (stereo partly drawn) [III-61] | < 50 | 50 to 500 | – | – |
| 50 to 500 | – | Cc1sc2c(c1C)C(c1ccc(N3CCC(C)(CNCCOc4ccc([C@@H]5c6ccc(O)cc6CC[C@@H]5c5ccccc5)cc4)CC3)cc1)=NC(Cc1ncco1)c1nnc(C)n1-2 (stereo partly drawn) [III-62] | < 50 | 50 to 500 | – | – |
| 50 to 500 | – | Cc1sc2c(c1C)C(c1ccc(N3CCN(C4CCN(CCOc5ccc([C@@H]6c7ccc(O)cc7CC[C@@H]6c6ccccc6)cc5)CC4)CC3)cc1)=NC(Cc1ncco1)c1nnc(C)n1-2 (stereo partly drawn) [III-63] | < 50 | 50 to 500 | – | – |
| 50 to 500 | – | Cc1sc2c(c1C)C(c1ccc(N3CCC4(CC3)CC(NCCOc3ccc([C@@H]5c6ccc(O)cc6CC[C@@H]5c5ccccc5)cc3)C4)cc1)=NC(Cc1ncco1)c1nnc(C)n1-2 (stereo partly drawn) [III-65] | < 50 | 50 to 500 | – | – |
| 50 to 500 | – | Cc1sc2c(c1C)C(c1ccc(N3CCO[C@@H](CNCCOc4ccc([C@@H]5c6ccc(O)cc6CC[C@@H]5c5ccccc5)cc4)C3)cc1)=NC(Cc1ncco1)c1nnc(C)n1-2 (stereo partly drawn) [III-66] | 50 to 500 | 50 to 500 | – | – |
| < 50 | – | Cc1sc2c(c1C)C(c1ccc(N3CCN(CC4CN(c5ccc([C@@H]6c7ccc(O)cc7CC[C@@H]6c6ccccc6)cc5)C4)CC3)cc1)=N[C@@H](C)c1nnc(C)n1-2 [III-67] | < 50 | < 50 | – | – |

| GI50 ([3]; Homo sapiens, MCF7, 144 h) [nM] | GI50 [3] [nM] | SMILES | GI50 ([1]; T-REx-293, 72 h) [nM] | GI50 ([2]; T-REx-293, 72 h) [nM] | GI50 [1] [nM] | GI50 [2] [nM] |
| --- | --- | --- | --- | --- | --- | --- |
| 50 to 500 | – | Cc1sc2c(c1C)C(c1ccc(N3CCN(CC4CN(c5ccc([C@H]6c7ccc(O)cc7CC[C@H]6c6ccccc6)cc5)C4)CC3)cc1)=N[C@@H](C)c1nnc(C)n1-2 [III-68] | 50 to 500 | 500 to 2500 | – | – |
| 50 to 500 | – | Cc1sc2c(c1C)C(c1ccc(OCC3CN(CC4CCN(c5ccc([C@H]6c7ccc(O)cc7CC[C@H]6c6ccccc6)cc5)CC4)C3)cc1)=N[C@@H](C)c1nnc(C)n1-2 [III-69] | 50 to 500 | 50 to 500 | – | – |
| < 50 | – | Cc1sc2c(c1C)C(c1ccc(OCC3CN(CC4CCN(c5ccc([C@@H]6c7ccc(O)cc7CC[C@@H]6c6ccccc6)cc5)CC4)C3)cc1)=N[C@@H](C)c1nnc(C)n1-2 [III-70] | < 50 | 50 to 500 | – | – |
| – | > 2500 | Cc1sc2c(c1C)C(c1ccc(N3CCC(CN4CCN(c5ccc([C@H]6c7ccc(O)cc7CC[C@H]6c6ccccc6)cc5)CC4)CC3)cc1)=N[C@H](Cc1ncco1)c1nnc(C)n1-2 [III-71] | – | – | > 2500 | > 2500 |
| – | 500 to 2500 | Cc1sc2c(c1C)C(c1ccc(N3CCC(CN4CCN(c5ccc([C@H]6c7ccc(O)cc7CC[C@H]6c6ccccc6)cc5)CC4)CC3)cc1)=N[C@H](Cc1ncco1)c1nnc(C)n1-2 [III-72] | – | – | 500 to 2500 | 500 to 2500 |
| < 50 | – | Cc1sc2c(c1C)C(c1ccc(N3CCC(CN4CCN(c5ccc([C@@H]6c7ccc(O)cc7CC[C@@H]6c6ccccc6)cc5)CC4)CC3)cc1)=N[C@@H](Cc1ncco1)c1nnc(C)n1-2 [III-73] | < 50 | 500 to 2500 | – | – |
| 50 to 500 | – | Cc1sc2c(c1C)C(c1ccc(N3CCC(CN4CCN(c5ccc([C@@H]6c7ccc(O)cc7CC[C@@H]6c6ccccc6)cc5)CC4)CC3)cc1)=N[C@H](Cc1ncco1)c1nnc(C)n1-2 [III-74] | < 50 | 50 to 500 | – | – |
| 50 to 500 | – | Cc1sc2c(c1C)C(c1ccc(N3CCC4(CC3)CN(CCOc3ccc([C@@H]5c6ccc(O)cc6CC[C@@H]5c5ccccc5)cc3)C4)cc1)=N[C@@H](C)c1nnc(C)n1-2 [III-78] | 50 to 500 | 50 to 500 | – | – |
| 50 to 500 | – | Cc1sc2c(c1C)C(c1ccc(N3CCC4(CC3)CN(CCOc3ccc([C@H]5c6ccc(O)cc6CC[C@H]5c5ccccc5)cc3)C4)cc1)=N[C@@H](C)c1nnc(C)n1-2 [III-79] | 50 to 500 | 50 to 500 | – | – |
| > 2500 | – | Cc1sc2c(c1C)C(c1ccc(N3CCN(CCC4CN(c5ccc([C@@H]6c7ccc(O)cc7CC[C@@H]6c6ccccc6)cc5)C4)CC3)cc1)=N[C@@H](C)c1nnc(C)n1-2 [III-80] | 50 to 500 | 500 to 2500 | – | – |
| 50 to 500 | – | Cc1sc2c(c1C)C(c1ccc(N3CCN(CC4CCN(c5ccc([C@@H]6c7ccc(O)cc7CC[C@@H]6c6ccccc6)cc5)CC4)CC3)cc1)=N[C@@H](CC(=O)O)c1nnc(C)n1-2 [III-81] | 50 to 500 | > 2500 | – | – |
| 50 to 500 | – | Cc1sc2c(c1C)C(c1ccc(C34COC(CN5CCN(c6ccc([C@@H]7c8ccc(O)cc8CC[C@@H]7c7ccccc7)cc6)CC5)(C3)C4)cc1)=N[C@@H](C)c1nnc(C)n1-2 [III-82] | 50 to 500 | 500 to 2500 | – | – |
| 50 to 500 | – | Cc1sc2c(c1C)C(c1ccc(C34COC(CN5CCN(c6ccc([C@H]7c8ccc(O)cc8CC[C@H]7c7ccccc7)cc6)CC5)(C3)C4)cc1)=N[C@@H](C)c1nnc(C)n1-2 [III-83] | 50 to 500 | 500 to 2500 | – | – |
| 50 to 500 | – | Cc1sc2c(c1C)C(c1ccc(N3CC(CCN4CC(COc5ccc([C@@H]6c7ccc(O)cc7CC[C@@H]6c6ccccc6)cc5)C4)C3)cc1)=N[C@@H](C)c1nnc(C)n1-2 [III-84] | < 50 | 500 to 2500 | – | – |
| 50 to 500 | – | Cc1sc2c(c1C)C(c1ccc(N3CC(CCN4CC(COc5ccc([C@H]6c7ccc(O)cc7CC[C@H]6c6ccccc6)cc5)C4)C3)cc1)=N[C@@H](C)c1nnc(C)n1-2 [III-85] | 50 to 500 | 500 to 2500 | – | – |
| 50 to 500 | – | Cc1sc2c(c1C)C(c1ccc(OC3CCN(CC4CCN(c5ccc([C@@H]6c7ccc(O)cc7CC[C@@H]6c6ccccc6)cc5)CC4)CC3)cc1)=N[C@@H](C)c1nnc(C)n1-2 [III-86] | 50 to 500 | 500 to 2500 | – | – |

| SMILES | GI50 ([3]; Homo sapiens, MCF7, 144 h) [nM] | GI50 [3] [nM] | GI50 ([1]; T-REx-293, 72 h) [nM] | GI50 ([2]; T-REx-293, 72 h) [nM] | GI50 [1] [nM] | GI50 [2] [nM] |
| --- | --- | --- | --- | --- | --- | --- |
| Cc1sc2c(c1C)C(c1ccc(N[C@H]3C[C@H]4CC[C@@H](C3)N4CCOc3ccc([C@@H]4c5ccc(O)cc5CC[C@@H]4c4ccccc4)cc3)cc1)=NC(Cc1ncco1)c1nnc(C)n1-2 (stereo partly drawn) [III-59] | 50 to 500 | – | < 50 | 50 to 500 | – | – |
| Cc1sc2c(c1C)C(c1ccc(N[C@@H]3C[C@H]4CCC[C@@H](C3)N4CCOc3ccc([C@@H]4c5ccc(O)cc5CC[C@@H]4c4ccccc4)cc3)cc1)=NC(Cc1ncco1)c1nnc(C)n1-2 (stereo partly drawn) [III-64] | 50 to 500 | – | 50 to 500 | 50 to 500 | – | – |
